Read-outs that look alike come from different tables or passages of the source.
How the values were obtained:
Test in all cases: KINOMEscan assay (Eurofins DiscoverX)
Type in all cases: binding
kinome (kinase panel) [1] = biological target: T1, kinome (kinase panel) (Homo sapiens, UniProt Q00526); settings: CDK3; 1000 nM; read-out: Percent Control
T1 construct: purchased Eurofins DiscoverX

kinome (kinase panel) [2] = biological target: T2, kinome (kinase panel) (Homo sapiens, UniProt P36888, N841I); settings: […]; 1000 nM; read-out: Percent Control
T2 construct: purchased Eurofins DiscoverX

kinome (kinase panel) [3] = biological target: T3, kinome (kinase panel) (Homo sapiens, UniProt P54646); settings: AMPK-alpha2 (Entrez PRKAA2); 1000 nM; read-out: Percent Control
T3 construct: purchased Eurofins DiscoverX

kinome (kinase panel) [4] = biological target: T4, kinome (kinase panel) (Homo sapiens, UniProt Q9Y2H9); settings: MAST1; 1000 nM; read-out: Percent Control
T4 construct: purchased Eurofins DiscoverX

kinome (kinase panel) [5] = biological target: T5, kinome (kinase panel) (Homo sapiens, UniProt Q9NY57); settings: YANK2 (STK32B); 1000 nM; read-out: Percent Control
T5 construct: purchased Eurofins DiscoverX

kinome (kinase panel) [6] = biological target: T6, kinome (kinase panel) (Homo sapiens, UniProt P54762); settings: EPHB1; 1000 nM; read-out: Percent Control
T6 construct: purchased Eurofins DiscoverX

kinome (kinase panel) [7] = biological target: T7, kinome (kinase panel) (Homo sapiens, UniProt P52564); settings: MEK6 (Entrez MAP2K6); 1000 nM; read-out: Percent Control
T7 construct: purchased Eurofins DiscoverX

kinome (kinase panel) [8] = biological target: T8, kinome (kinase panel) (Homo sapiens, UniProt Q86UX6); settings: YANK3 (STK32C); 1000 nM; read-out: Percent Control
T8 construct: purchased Eurofins DiscoverX

kinome (kinase panel) [9] = biological target: T9, kinome (kinase panel) (Homo sapiens, UniProt P36888, R834Q); settings: […]; 1000 nM; read-out: Percent Control
T9 construct: purchased Eurofins DiscoverX

kinome (kinase panel) [10] = biological target: T10, kinome (kinase panel) (Homo sapiens, UniProt P53667); settings: LIMK1; 1000 nM; read-out: Percent Control
T10 construct: purchased Eurofins DiscoverX

kinome (kinase panel) [11] = biological target: T11, kinome (kinase panel) (Homo sapiens, UniProt P22607, G697C); settings: read-out: Percent Control
T11 construct: purchased Eurofins DiscoverX

kinome (kinase panel) [12] = biological target: T12, kinome (kinase panel) (Homo sapiens, UniProt P00533, G719S); settings: […]; 1000 nM; read-out: Percent Control
T12 construct: purchased Eurofins DiscoverX

kinome (kinase panel) [13] = biological target: T13, kinome (kinase panel) (Homo sapiens, UniProt P43405); settings: SYK; 1000 nM; read-out: Percent Control
T13 construct: purchased Eurofins DiscoverX

kinome (kinase panel) [14] = biological target: T14, kinome (kinase panel) (Homo sapiens, UniProt Q9UM73, L1196M); settings: […]; 1000 nM; read-out: Percent Control
T14 construct: purchased Eurofins DiscoverX

kinome (kinase panel) [15] = biological target: T15, kinome (kinase panel) (Homo sapiens, UniProt P07949, V804L); settings: read-out: Percent Control
T15 construct: purchased Eurofins DiscoverX

kinome (kinase panel) [16] = biological target: T16, kinome (kinase panel) (Homo sapiens, UniProt P12931); settings: SRC; 1000 nM; read-out: Percent Control
T16 construct: purchased Eurofins DiscoverX

kinome (kinase panel) [17] = biological target: T17, kinome (kinase panel) (Homo sapiens, UniProt Q96D53); settings: ADCK4; 1000 nM; read-out: Percent Control
T17 construct: purchased Eurofins DiscoverX

kinome (kinase panel) [18] = biological target: T18, kinome (kinase panel) (Homo sapiens, UniProt Q9H3Y6); settings: SRMS; 1000 nM; read-out: Percent Control
T18 construct: purchased Eurofins DiscoverX

kinome (kinase panel) [19] = biological target: T19, kinome (kinase panel) (Homo sapiens, UniProt Q12851); settings: MAP4K2; 1000 nM; read-out: Percent Control
T19 construct: purchased Eurofins DiscoverX

kinome (kinase panel) [20] = biological target: T20, kinome (kinase panel) (Homo sapiens, UniProt Q06418); settings: TYRO3; 1000 nM; read-out: Percent Control
T20 construct: purchased Eurofins DiscoverX

kinome (kinase panel) [21] = biological target: T21, kinome (kinase panel) (Homo sapiens, UniProt O14733); settings: MKK7 (Entrez MAP2K7); 1000 nM; read-out: Percent Control
T21 construct: purchased Eurofins DiscoverX

kinome (kinase panel) [22] = biological target: T22, kinome (kinase panel) (Homo sapiens, UniProt Q5S007); settings: LRRK2; 1000 nM; read-out: Percent Control
T22 construct: purchased Eurofins DiscoverX

kinome (kinase panel) [23] = biological target: T23, kinome (kinase panel) (Homo sapiens, UniProt P19525); settings: PRKR (Entrez EIF2AK2); 1000 nM; read-out: Percent Control
T23 construct: purchased Eurofins DiscoverX

kinome (kinase panel) [24] = biological target: T24, kinome (kinase panel) (Homo sapiens, UniProt Q02750); settings: MEK1 (Entrez MAP2K1); 1000 nM; read-out: Percent Control
T24 construct: purchased Eurofins DiscoverX

kinome (kinase panel) [25] = biological target: T25, kinome (kinase panel) (Homo sapiens, UniProt Q8IYT8); settings: ULK2; 1000 nM; read-out: Percent Control
T25 construct: purchased Eurofins DiscoverX

kinome (kinase panel) [26] = biological target: T26, kinome (kinase panel) (Homo sapiens, UniProt P22694); settings: PKAC-beta (Entrez PRKACB); 1000 nM; read-out: Percent Control
T26 construct: purchased Eurofins DiscoverX

kinome (kinase panel) [27] = biological target: T27, kinome (kinase panel) (Homo sapiens, UniProt P36888); settings: 1000 nM, read-out: Percent Control
T27 construct: purchased Eurofins DiscoverX

kinome (kinase panel) [28] = biological target: T28, kinome (kinase panel) (Homo sapiens, UniProt Q14164); settings: IKK-epsilon (Entrez IKBKE); 1000 nM; read-out: Percent Control
T28 construct: purchased Eurofins DiscoverX

kinome (kinase panel) [29] = biological target: T29, kinome (kinase panel) (Homo sapiens, UniProt Q8IU85); settings: CAMK1D; 1000 nM; read-out: Percent Control
T29 construct: purchased Eurofins DiscoverX

kinome (kinase panel) [30] = biological target: T30, kinome (kinase panel) (Homo sapiens, UniProt O75582); settings: 1000 nM, read-out: Percent Control
T30 construct: purchased Eurofins DiscoverX

kinome (kinase panel) [31] = biological target: T31, kinome (kinase panel) (Homo sapiens, UniProt Q9UBE8); settings: NLK; 1000 nM; read-out: Percent Control
T31 construct: purchased Eurofins DiscoverX

kinome (kinase panel) [32] = biological target: T32, kinome (kinase panel) (Homo sapiens, UniProt Q86YV6); settings: MYLK4; 1000 nM; read-out: Percent Control
T32 construct: purchased Eurofins DiscoverX

T30 sequence (O75582 whole entry): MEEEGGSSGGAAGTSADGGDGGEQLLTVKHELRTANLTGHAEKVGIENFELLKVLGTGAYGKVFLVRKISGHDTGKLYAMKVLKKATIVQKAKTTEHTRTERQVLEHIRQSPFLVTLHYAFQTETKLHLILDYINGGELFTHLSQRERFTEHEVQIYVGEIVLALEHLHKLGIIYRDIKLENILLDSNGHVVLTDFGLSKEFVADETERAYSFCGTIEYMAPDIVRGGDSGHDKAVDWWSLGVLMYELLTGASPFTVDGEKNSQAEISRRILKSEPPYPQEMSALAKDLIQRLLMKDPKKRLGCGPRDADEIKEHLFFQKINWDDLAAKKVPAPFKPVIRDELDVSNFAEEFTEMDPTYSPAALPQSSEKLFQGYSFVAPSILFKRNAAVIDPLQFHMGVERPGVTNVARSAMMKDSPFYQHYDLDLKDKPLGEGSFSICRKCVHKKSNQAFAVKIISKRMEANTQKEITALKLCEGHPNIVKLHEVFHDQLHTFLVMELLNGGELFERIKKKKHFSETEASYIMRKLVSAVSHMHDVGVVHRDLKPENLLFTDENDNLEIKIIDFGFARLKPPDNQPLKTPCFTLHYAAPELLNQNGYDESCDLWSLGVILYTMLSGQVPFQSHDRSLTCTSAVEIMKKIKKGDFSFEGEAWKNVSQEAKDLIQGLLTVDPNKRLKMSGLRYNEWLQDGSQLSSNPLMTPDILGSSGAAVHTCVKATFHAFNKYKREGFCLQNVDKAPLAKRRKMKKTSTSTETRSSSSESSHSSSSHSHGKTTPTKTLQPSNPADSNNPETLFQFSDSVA
T21 sequence (O14733 whole entry): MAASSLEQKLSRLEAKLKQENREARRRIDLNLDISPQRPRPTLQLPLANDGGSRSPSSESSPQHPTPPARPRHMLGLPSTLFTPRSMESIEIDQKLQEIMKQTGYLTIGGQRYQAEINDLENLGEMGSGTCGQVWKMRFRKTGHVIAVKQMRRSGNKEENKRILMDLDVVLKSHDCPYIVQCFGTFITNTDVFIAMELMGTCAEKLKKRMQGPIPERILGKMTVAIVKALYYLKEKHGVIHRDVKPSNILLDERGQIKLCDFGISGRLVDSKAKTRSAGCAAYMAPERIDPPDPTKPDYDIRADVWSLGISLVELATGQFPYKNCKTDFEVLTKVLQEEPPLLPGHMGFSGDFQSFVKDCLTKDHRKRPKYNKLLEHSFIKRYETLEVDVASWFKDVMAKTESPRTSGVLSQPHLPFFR
T17 sequence (Q96D53 whole entry): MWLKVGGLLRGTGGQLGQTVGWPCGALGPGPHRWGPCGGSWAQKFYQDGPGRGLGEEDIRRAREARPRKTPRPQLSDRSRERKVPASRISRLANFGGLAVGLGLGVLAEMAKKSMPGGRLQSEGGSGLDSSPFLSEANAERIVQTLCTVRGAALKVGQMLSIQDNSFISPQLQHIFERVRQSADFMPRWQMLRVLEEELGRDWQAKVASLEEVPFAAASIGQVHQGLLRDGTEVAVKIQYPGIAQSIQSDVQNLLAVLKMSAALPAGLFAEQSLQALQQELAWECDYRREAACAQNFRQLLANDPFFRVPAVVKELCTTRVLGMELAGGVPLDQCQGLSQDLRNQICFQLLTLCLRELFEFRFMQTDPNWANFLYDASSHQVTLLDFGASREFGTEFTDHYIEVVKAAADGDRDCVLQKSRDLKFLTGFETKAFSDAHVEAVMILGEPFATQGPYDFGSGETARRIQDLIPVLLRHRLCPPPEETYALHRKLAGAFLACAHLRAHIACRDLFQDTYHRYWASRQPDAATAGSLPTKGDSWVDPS
T10 sequence (P53667 whole entry): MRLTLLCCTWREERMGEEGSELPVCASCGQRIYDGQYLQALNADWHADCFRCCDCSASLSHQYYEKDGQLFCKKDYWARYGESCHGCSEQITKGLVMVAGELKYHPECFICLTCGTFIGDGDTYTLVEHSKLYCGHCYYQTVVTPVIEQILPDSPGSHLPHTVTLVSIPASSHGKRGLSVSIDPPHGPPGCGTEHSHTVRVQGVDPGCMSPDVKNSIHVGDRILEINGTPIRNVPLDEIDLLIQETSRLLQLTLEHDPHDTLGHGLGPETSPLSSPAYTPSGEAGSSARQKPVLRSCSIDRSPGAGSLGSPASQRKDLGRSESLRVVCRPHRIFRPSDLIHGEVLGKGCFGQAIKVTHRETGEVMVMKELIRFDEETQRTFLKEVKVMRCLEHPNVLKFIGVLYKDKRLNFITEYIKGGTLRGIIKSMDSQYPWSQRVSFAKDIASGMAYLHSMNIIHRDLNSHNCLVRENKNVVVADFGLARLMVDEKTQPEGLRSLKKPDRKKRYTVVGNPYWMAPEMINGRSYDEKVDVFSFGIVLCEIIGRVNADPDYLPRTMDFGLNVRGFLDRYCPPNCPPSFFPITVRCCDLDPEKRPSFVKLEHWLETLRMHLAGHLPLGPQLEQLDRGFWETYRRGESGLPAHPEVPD
T8 sequence (Q86UX6 whole entry): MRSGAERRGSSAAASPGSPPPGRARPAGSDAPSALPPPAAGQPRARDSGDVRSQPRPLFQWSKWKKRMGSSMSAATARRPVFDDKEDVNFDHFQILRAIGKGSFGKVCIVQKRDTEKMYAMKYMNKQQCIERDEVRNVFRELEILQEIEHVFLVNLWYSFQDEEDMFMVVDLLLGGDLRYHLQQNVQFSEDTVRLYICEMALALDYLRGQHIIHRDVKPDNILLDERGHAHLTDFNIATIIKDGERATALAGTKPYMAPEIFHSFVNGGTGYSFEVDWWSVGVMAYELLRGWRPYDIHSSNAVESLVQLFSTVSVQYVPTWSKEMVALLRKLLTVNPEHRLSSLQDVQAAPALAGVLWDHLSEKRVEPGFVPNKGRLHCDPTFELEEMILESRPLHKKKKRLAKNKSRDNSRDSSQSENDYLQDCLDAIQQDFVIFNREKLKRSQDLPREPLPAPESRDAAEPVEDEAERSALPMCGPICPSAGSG
T19 sequence (Q12851 whole entry): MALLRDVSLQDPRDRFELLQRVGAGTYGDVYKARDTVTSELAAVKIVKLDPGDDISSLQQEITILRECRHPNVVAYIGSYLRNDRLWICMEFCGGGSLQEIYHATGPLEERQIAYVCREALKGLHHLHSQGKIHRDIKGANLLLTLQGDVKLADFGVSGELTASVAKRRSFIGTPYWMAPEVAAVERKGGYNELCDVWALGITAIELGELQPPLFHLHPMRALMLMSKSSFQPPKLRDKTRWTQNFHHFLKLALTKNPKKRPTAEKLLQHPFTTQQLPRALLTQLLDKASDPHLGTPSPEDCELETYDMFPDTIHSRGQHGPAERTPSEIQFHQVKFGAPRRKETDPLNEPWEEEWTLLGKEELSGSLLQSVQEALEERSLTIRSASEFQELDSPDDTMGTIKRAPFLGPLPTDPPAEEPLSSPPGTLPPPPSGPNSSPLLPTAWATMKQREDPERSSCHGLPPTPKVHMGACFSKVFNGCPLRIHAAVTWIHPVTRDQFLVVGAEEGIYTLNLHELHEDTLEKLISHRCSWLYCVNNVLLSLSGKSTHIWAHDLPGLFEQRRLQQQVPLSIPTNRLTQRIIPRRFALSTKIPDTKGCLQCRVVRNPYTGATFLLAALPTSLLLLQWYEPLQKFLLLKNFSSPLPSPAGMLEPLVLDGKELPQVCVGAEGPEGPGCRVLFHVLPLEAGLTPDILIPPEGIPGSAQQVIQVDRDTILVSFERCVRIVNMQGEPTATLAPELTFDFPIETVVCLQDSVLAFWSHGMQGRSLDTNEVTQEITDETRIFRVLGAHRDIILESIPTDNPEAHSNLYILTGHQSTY
T24 sequence (Q02750 whole entry): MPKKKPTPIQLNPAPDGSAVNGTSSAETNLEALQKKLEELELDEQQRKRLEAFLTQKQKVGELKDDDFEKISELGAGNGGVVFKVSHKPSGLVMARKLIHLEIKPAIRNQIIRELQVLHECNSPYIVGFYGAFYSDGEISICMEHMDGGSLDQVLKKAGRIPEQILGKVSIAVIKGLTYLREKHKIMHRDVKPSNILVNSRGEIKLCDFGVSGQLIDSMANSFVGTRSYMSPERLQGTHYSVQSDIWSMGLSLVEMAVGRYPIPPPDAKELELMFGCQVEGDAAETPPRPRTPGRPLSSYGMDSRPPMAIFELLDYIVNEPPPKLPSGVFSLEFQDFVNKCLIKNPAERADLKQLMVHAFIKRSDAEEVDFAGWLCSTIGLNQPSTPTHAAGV
T5 sequence (Q9NY57 whole entry): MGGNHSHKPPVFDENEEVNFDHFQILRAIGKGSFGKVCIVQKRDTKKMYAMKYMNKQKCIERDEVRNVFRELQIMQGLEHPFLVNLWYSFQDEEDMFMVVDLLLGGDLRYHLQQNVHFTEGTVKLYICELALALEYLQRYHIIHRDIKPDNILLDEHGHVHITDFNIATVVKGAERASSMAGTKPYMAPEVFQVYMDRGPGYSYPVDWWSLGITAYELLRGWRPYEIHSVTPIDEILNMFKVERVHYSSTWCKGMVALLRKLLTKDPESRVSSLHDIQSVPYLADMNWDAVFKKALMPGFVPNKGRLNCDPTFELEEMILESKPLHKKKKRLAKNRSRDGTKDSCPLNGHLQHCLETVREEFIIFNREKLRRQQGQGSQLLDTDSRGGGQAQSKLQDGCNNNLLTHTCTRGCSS
T1 sequence (Q00526 whole entry): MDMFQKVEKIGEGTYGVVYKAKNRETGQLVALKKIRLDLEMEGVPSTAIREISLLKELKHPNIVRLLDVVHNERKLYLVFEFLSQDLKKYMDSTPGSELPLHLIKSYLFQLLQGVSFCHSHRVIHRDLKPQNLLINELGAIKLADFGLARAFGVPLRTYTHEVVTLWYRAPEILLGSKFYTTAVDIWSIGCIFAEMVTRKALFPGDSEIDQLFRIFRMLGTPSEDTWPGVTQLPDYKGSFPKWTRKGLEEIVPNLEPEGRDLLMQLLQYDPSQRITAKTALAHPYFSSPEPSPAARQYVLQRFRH

CN(C)C(=O)c1cc2cnc(Nc3ccc(-c4csc5c(=O)cc(N6CCOCC6)oc45)cc3)nc2n1C1CCCC1 [SRX3177]
remaining binding at 1 µM (kinome (kinase panel) [1]): 69%
remaining binding at 1 µM (kinome (kinase panel) [2]): 7.2%
remaining binding at 1 µM (kinome (kinase panel) [3]): 98%
remaining binding at 1 µM (kinome (kinase panel) [4]): 53%
remaining binding at 1 µM (kinome (kinase panel) [5]): 100%
remaining binding at 1 µM (kinome (kinase panel) [6]): 100%
remaining binding at 1 µM (kinome (kinase panel) [7]): 100%
remaining binding at 1 µM (kinome (kinase panel) [8]): 91%
remaining binding at 1 µM (kinome (kinase panel) [9]): 38%
remaining binding at 1 µM (kinome (kinase panel) [10]): 85%
remaining binding at 1 µM (kinome (kinase panel) [11]): 89%
remaining binding at 1 µM (kinome (kinase panel) [12]): 78%
remaining binding at 1 µM (kinome (kinase panel) [13]): 81%
remaining binding at 1 µM (kinome (kinase panel) [14]): 84%
remaining binding at 1 µM (kinome (kinase panel) [15]): 99%
remaining binding at 1 µM (kinome (kinase panel) [16]): 74%
remaining binding at 1 µM (kinome (kinase panel) [17]): 43%
remaining binding at 1 µM (kinome (kinase panel) [18]): 92%
remaining binding at 1 µM (kinome (kinase panel) [19]): 82%
remaining binding at 1 µM (kinome (kinase panel) [20]): 100%
remaining binding at 1 µM (kinome (kinase panel) [21]): 46%
remaining binding at 1 µM (kinome (kinase panel) [22]): 34%
remaining binding at 1 µM (kinome (kinase panel) [23]): 97%
remaining binding at 1 µM (kinome (kinase panel) [24]): 68%
remaining binding at 1 µM (kinome (kinase panel) [25]): 79%
remaining binding at 1 µM (kinome (kinase panel) [26]): 100%
remaining binding at 1 µM (kinome (kinase panel) [27]; FLT3-autoinhibited): 63%
remaining binding at 1 µM (kinome (kinase panel) [27]; FLT3): 26%
remaining binding at 1 µM (kinome (kinase panel) [28]): 51%
remaining binding at 1 µM (kinome (kinase panel) [29]): 95%
remaining binding at 1 µM (kinome (kinase panel) [30]; RPS6KA5(Kin.Dom.1-N-terminal)): 100%
remaining binding at 1 µM (kinome (kinase panel) [30]; RPS6KA5(Kin.Dom.2-C-terminal)): 100%
remaining binding at 1 µM (kinome (kinase panel) [31]): 81%
remaining binding at 1 µM (kinome (kinase panel) [32]): 100%

Source: PMC7385619, “A triple action CDK4/6-PI3K-BET inhibitor with augmented cancer cell cytotoxicity” (Cell Discovery, 2020)
